Assay results: PubChem BioAssay (NCI)
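Tested at 5 concentrations; 48 h exposure; 96-well plates; endpoints linearly interpolated, else capped at highest concentration. TGI: total growth inhibition.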

How the values were obtained:
Assay in all cases: NCI-60 cell line screen, 48 h
CCRF-CEM leukemia = system: CCRF-CEM leukemia
MCF7 breast = system: MCF7 breast
MALME-3M melanoma = system: MALME-3M melanoma
MDA-MB-231 breast = system: MDA-MB-231 breast
MDA-MB-435 = system: MDA-MB-435
K-562 leukemia = system: K-562 leukemia
HOP-62 NSCLC = system: HOP-62 NSCLC
SR leukemia = system: SR leukemia
UACC-257 melanoma = system: UACC-257 melanoma
MDA-N = system: MDA-N
NCI-H226 lung = system: NCI-H226 lung
LOX IMVI melanoma = system: LOX IMVI melanoma
SW-620 colon = system: SW-620 colon
NCI/ADR-RES ovarian = system: NCI/ADR-RES ovarian
ACHN renal = system: ACHN renal
A498 renal = system: A498 renal

Row | SMILES | TGI (CCRF-CEM leukemia) [µM] | TGI (MCF7 breast) [µM] | TGI (MALME-3M melanoma) [µM] | TGI (MDA-MB-231 breast) [µM] | TGI (MDA-MB-435) [µM] | TGI (K-562 leukemia) [µM] | TGI (HOP-62 NSCLC) [µM] | TGI (SR leukemia) [µM] | TGI (UACC-257 melanoma) [µM] | TGI (MDA-N) [µM] | TGI (NCI-H226 lung) [µM] | TGI (LOX IMVI melanoma) [µM] | TGI (SW-620 colon) [µM] | TGI (NCI/ADR-RES ovarian) [µM] | TGI (ACHN renal) [µM] | TGI (A498 renal) [µM]
1 | CCOC(=O)N(C)C(=C(F)F)C(F)(F)F | 75.8 | > 100 | 33.5 | 84.2 | 46.2 | 62.1 | 68.9 | 20.9 | > 100 | 40.2 | 58.3 | 85.5 | 67.9 | > 100 |  | 
2 | CCc1cc2c(c3c1CCCC3)CC1(Cc3ccc(C(=O)OC)cc3C1)C2 (centres undefined) | 56 | > 100 | > 100 | > 100 | > 100 | > 100 | > 100 | 85.1 | > 100 | > 100 | > 100 | > 100 | > 100 | > 100 | > 100 | 
3 | COC(=O)c1nn2ccc3ccccc3c2c1C(=O)OC |  | > 100 | > 100 | > 100 | > 100 | > 100 | > 100 | > 100 | > 100 | > 100 | > 100 | > 100 | > 100 | > 100 | > 100 | > 100
4 | COc1cc(/C=N/c2ccccn2)cc(OC)c1OC | > 100 | > 100 | > 100 | > 100 | 58.6 | > 100 | > 100 | > 100 | > 100 | > 59.4 | > 100 | > 100 | > 100 | > 100 | > 100 | > 100
5 | CC(C)CCC[C@@H](C)C1CCC2[C@@H]3CCC4C[C@@H](NS(C)(=O)=O)CC[C@]4(C)C3CC[C@@]21C (some centres undefined) | > 100 | > 100 | > 100 | > 100 | > 100 | > 100 | > 100 | > 100 | > 100 | > 100 | > 100 | > 100 | > 100 | > 100 |  | 
6 | CC(C)[Si]1(C(C)C)OCC2OC(n3c(C(=O)c4ccccc4)cc(=O)[nH]c3=O)CC2O[Si](C(C)C)(C(C)C)O1 (centres undefined) | 5.12 | 8.14 | 13.1 | 5.67 | 10.4 | > 100 | 21.3 | > 23.8 | 6.04 | 11.7 | 5.87 | 3.93 | 8.32 | 26.8 | 8.58 | 24.8
7 | COc1cc(C(c2cccc3ccccc23)N2C(=O)CCC2C(=O)O)cc(OC)c1OC (centres undefined) | > 100 | > 100 | > 100 | > 100 | > 100 | > 100 | > 100 | > 100 | > 100 | > 100 | > 100 |  | > 100 | > 100 | > 100 | > 100
8 | O=[N+]([O-])c1ccc(C2=NOC(c3ccc(Cl)cc3)N2C23CC4CC(CC(C4)C2)C3)cc1 (centres undefined) | > 100 | > 100 | > 100 | > 100 | > 100 | > 100 | > 100 | > 100 | > 100 | > 100 | > 100 | > 100 | > 100 | > 100 | > 100 | > 100
9 | COC1CC(C)([N+](=O)[O-])C(O)C(C)O1 (centres undefined) | > 100 | > 100 | > 100 | > 100 | > 100 | > 100 | > 100 | > 100 | > 100 | > 100 | > 100 | > 100 | > 100 | > 100 | > 100 | > 100
10 | COc1cc(C2c3[nH]c4ccccc4c3[C@@H](Nc3ccc(C#N)cc3)[C@H]3COC(=O)N23)cc(OC)c1O (some centres undefined) | 0.404 | 2.7 | 1.2 | 2.14 | 2.19 | > 10 | 1.54 | 0.059 | 3.29 | 1.57 | 0.651 | 0.681 | 1.49 | > 10 | 0.621 | 0.777
11 | N#Cc1ncn(CCO)c1N | > 100 | > 100 | > 100 | > 100 | > 100 | > 100 | > 100 | > 100 | > 100 | > 100 | > 100 | > 100 | > 100 | > 100 | > 100 | > 100
12 | NS(=O)(=O)c1nnc(NC(=O)c2cccc([N+](=O)[O-])c2)s1 |  | > 100 | > 100 | > 100 | > 100 | > 100 | > 100 | > 100 | > 100 | > 100 | > 100 | > 100 | > 100 | > 100 | > 100 | 
13 | NC(=O)NNCc1c(-c2ccccc2)no[n+]1[O-] | > 100 | > 100 | > 100 | > 100 | > 100 | > 100 | > 100 | > 100 | > 100 | > 100 | > 100 | > 100 | > 100 | > 100 | > 100 | > 100
14 | NC(N)=NS(=O)(=O)c1ccc(NNC(=O)c2cccc3c(=O)c4ccccc4[nH]c23)cc1 | > 100 | 34.3 | 35.4 | 95.2 | 57.5 | 53 | 73.5 | > 100 | 74.8 | 60.9 | 67.2 | 47.7 | > 100 | > 100 | 61.4 | 
